Measured values published in paper PMC3955222 (Chembiochem : a European journal of chemical biology, 2013).

Molecular target: T1, CODH ICh (Carboxydothermus hydrogenoformans, UniProt P59934)
T1 sequence (P59934 2-636): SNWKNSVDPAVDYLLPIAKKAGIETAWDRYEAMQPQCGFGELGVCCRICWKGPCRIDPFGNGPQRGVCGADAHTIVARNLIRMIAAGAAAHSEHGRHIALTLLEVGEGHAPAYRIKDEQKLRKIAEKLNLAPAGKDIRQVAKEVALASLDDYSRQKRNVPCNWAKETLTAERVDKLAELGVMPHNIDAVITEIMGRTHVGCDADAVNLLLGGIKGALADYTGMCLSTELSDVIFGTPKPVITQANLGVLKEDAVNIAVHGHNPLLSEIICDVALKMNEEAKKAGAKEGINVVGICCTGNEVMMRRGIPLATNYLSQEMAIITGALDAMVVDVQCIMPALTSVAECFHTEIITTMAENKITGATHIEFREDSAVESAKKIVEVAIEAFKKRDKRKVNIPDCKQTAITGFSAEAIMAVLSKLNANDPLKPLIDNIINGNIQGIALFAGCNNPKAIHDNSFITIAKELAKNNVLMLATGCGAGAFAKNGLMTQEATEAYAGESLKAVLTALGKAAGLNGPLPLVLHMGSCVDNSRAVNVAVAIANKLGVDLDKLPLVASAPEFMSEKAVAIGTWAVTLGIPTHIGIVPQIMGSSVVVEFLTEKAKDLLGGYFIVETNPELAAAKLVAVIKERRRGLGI
Format: biochemical

In the case of N#CO [cyanate], the “chronoamperometry, inactivation half-time at 6.7 mM cyanate” value was ~ 90 seconds.
